Calls of active or inactive are those of the source. How the calls were made is not given here.

The data set concerns CCRIS mutagenicity, Ames/micronucleus/aberration tests. The data set can be described thus: CCRIS mutagenicity studies.
The mark [1] stands for this setting: Test System: AMES SALMONELLA TYPHIMURIUM, Strain/Indicator: TA98, Metabolic Activation: NONE, Method: STANDARD PLATE.
Where [2] appears, read: Test System: AMES SALMONELLA TYPHIMURIUM, Strain/Indicator: TA98, Metabolic Activation: RAT, LIVER, S-9, AROCLOR 1254, Method: STANDARD PLATE.
Where [3] appears, read: Test System: AMES SALMONELLA TYPHIMURIUM, Strain/Indicator: TA100, Metabolic Activation: NONE, Method: STANDARD PLATE.
Setting [4] is: Test System: AMES SALMONELLA TYPHIMURIUM, Strain/Indicator: TA100, Metabolic Activation: RAT, LIVER, S-9, AROCLOR 1254, Method: STANDARD PLATE.
The mark [5] stands for this setting: Test System: AMES SALMONELLA TYPHIMURIUM, Strain/Indicator: TA102, Metabolic Activation: NONE, Method: STANDARD PLATE.
Where [6] appears, read: Test System: AMES SALMONELLA TYPHIMURIUM, Strain/Indicator: TA97, Metabolic Activation: NONE, Method: STANDARD PLATE.
Setting [7] is: Test System: AMES SALMONELLA TYPHIMURIUM, Strain/Indicator: TA102, Metabolic Activation: RAT, LIVER, S-9, AROCLOR 1254, Method: STANDARD PLATE.

Consider `CC/C=C/C=C/C=C/C=C/C=C/OC[C@@H](O)CO`, for which the mutagenic call under setting [1] was “active; positive”; the mutagenic call (Test System: AMES SALMONELLA TYPHIMURIUM, Strain/Indicator: TA98, Metabolic Activation: NONE, Method: STANDARD PLATE (AEROBIC)) was “inactive; negative”; the mutagenic call (Test System: AMES SALMONELLA TYPHIMURIUM, Strain/Indicator: TA98, Metabolic Activation: NONE, Method: STANDARD PLATE (ANAEROBIC)) is “active; positive”; the mutagenic call under setting [2] was “inactive; negative”; the mutagenic call (Test System: AMES SALMONELLA TYPHIMURIUM, Strain/Indicator: TA100, Metabolic Activation: NONE, Method: FLUCTUATION TEST (AEROBIC)) was “active; positive”; the mutagenic call (Test System: AMES SALMONELLA TYPHIMURIUM, Strain/Indicator: TA100, Metabolic Activation: NONE, Method: FLUCTUATION TEST (ANAEROBIC)) is “active; positive”. The mutagenic call reads like this: under setting [3], “active; positive”; (Test System: AMES SALMONELLA TYPHIMURIUM, Strain/Indicator: TA100, Metabolic Activation: NONE, Method: STANDARD PLATE (AEROBIC)) “active; positive”; (Test System: AMES SALMONELLA TYPHIMURIUM, Strain/Indicator: TA100, Metabolic Activation: NONE, Method: STANDARD PLATE (ANAEROBIC)) “inactive; negative”; (Test System: AMES SALMONELLA TYPHIMURIUM, Strain/Indicator: TA100, Metabolic Activation: RAT, LIVER, S-9, AROCLOR 1254, Method: PREINCUBATION) “active; positive”; under setting [4], “active; positive”; under setting [5], “active; positive”. Also, the mutagenic call by setting is: (Test System: AMES SALMONELLA TYPHIMURIUM, Strain/Indicator: TA104, Metabolic Activation: NONE, Method: STANDARD PLATE) “active; positive”; (Test System: AMES SALMONELLA TYPHIMURIUM, Strain/Indicator: TA104, Metabolic Activation: RAT, LIVER, S-9, AROCLOR 1254, Method: STANDARD PLATE) “active; positive”; (Test System: E. COLI, Strain/Indicator: WP2 UVRA (PKM101), Metabolic Activation: NONE, Method: STANDARD PLATE (AEROBIC)) “active; positive”; (Test System: E. COLI, Strain/Indicator: WP2 UVRA (PKM101), Metabolic Activation: NONE, Method: STANDARD PLATE (ANAEROBIC)) “inactive; negative”; (Test System: MOUSE LYMPHOMA, Strain/Indicator: L5178Y (TK+/TK-), Metabolic Activation: NONE, Method: SUSPENSION/PLATE) “active; positive”; (Test System: MOUSE LYMPHOMA, Strain/Indicator: L5178Y (TK+/TK-), Metabolic Activation: RAT, LIVER, S-9, AROCLOR 1254, Method: SUSPENSION/PLATE) “active; positive”. The mutagenic call was “active; positive” (Test System: Mouse lymphoma, Strain/Indicator: L5178Y (tk+/tk-), Metabolic Activation: None, Method: Suspension/plate) and “inactive; negative” (Test System: Mouse lymphoma, Strain/Indicator: L5178Y (tk+/tk-), Metabolic Activation: Rat, Liver, S-9, Aroclor 1254, Method: Suspension/plate).
`C=C1/C(=C\C=C2/CCC[C@]3(C)[C@@H]([C@H](C)/C=C/[C@@H](O)C4CC4)CC[C@@H]23)C[C@@H](O)C[C@@H]1O`: the mutagenic call runs as follows: (Test System: AMES SALMONELLA TYPHIMURIUM, Strain/Indicator: TA98, Metabolic Activation: NONE, Method: PREINCUBATION) “inactive; negative”; (Test System: AMES SALMONELLA TYPHIMURIUM, Strain/Indicator: TA98, Metabolic Activation: S-9, Method: PREINCUBATION) “inactive; negative”; (Test System: AMES SALMONELLA TYPHIMURIUM, Strain/Indicator: TA100, Metabolic Activation: NONE, Method: PREINCUBATION) “inactive; negative”; (Test System: AMES SALMONELLA TYPHIMURIUM, Strain/Indicator: TA100, Metabolic Activation: S-9, Method: PREINCUBATION) “inactive; negative”; (Test System: AMES SALMONELLA TYPHIMURIUM, Strain/Indicator: TA1535, Metabolic Activation: NONE, Method: PREINCUBATION) “inactive; negative”; (Test System: AMES SALMONELLA TYPHIMURIUM, Strain/Indicator: TA1535, Metabolic Activation: S-9, Method: PREINCUBATION) “inactive; negative”. The mutagenic call is, setting by setting: (Test System: AMES SALMONELLA TYPHIMURIUM, Strain/Indicator: TA1537, Metabolic Activation: NONE, Method: PREINCUBATION) “inactive; negative”; (Test System: AMES SALMONELLA TYPHIMURIUM, Strain/Indicator: TA1537, Metabolic Activation: S-9, Method: PREINCUBATION) “inactive; negative”; (Test System: E. COLI, Strain/Indicator: WP2 UVRA, Metabolic Activation: NONE, Method: PREINCUBATION) “inactive; negative”; (Test System: E. COLI, Strain/Indicator: WP2 UVRA, Metabolic Activation: S-9, Method: PREINCUBATION) “inactive; negative”.
As for `CCC(CCC(C)O)COC(=O)CCCCC(=O)O` (stereo not given), the mutagenic call runs as follows: under setting [6], “inactive; negative”; (Test System: AMES SALMONELLA TYPHIMURIUM, Strain/Indicator: TA97, Metabolic Activation: RAT, LIVER, S-9, AROCLOR 1254, Method: STANDARD PLATE) “inactive; negative”; (Test System: AMES SALMONELLA TYPHIMURIUM, Strain/Indicator: TA97, Metabolic Activation: RAT, LIVER, S-9, DI(2-ETHYLHEXYL)PHTHALATE, Method: STANDARD PLATE) “inactive; negative”; under setting [1], “inactive; negative”; under setting [2], “inactive; negative”; (Test System: AMES SALMONELLA TYPHIMURIUM, Strain/Indicator: TA98, Metabolic Activation: RAT, LIVER, S-9, DI(2-ETHYLHEXYL)PHTHALATE, Method: STANDARD PLATE) “inactive; negative”. The mutagenic call was “inactive; negative” under setting [3]; “inactive; negative” under setting [4]; “inactive; negative” (Test System: AMES SALMONELLA TYPHIMURIUM, Strain/Indicator: TA100, Metabolic Activation: RAT, LIVER, S-9, DI(2-ETHYLHEXYL)PHTHALATE, Method: STANDARD PLATE); “inactive; negative” under setting [5]; “inactive; negative” under setting [7]; “inactive; negative” (Test System: AMES SALMONELLA TYPHIMURIUM, Strain/Indicator: TA102, Metabolic Activation: RAT, LIVER, S-9, DI(2-ETHYLHEXYL)PHTHALATE, Method: STANDARD PLATE).
Take `c1ccc(COC[C@@H]2CO2)cc1`: under setting [3], the mutagenic call is “active; positive”.
Regarding `Clc1cccc(Cl)n1`, the mutagenic call was “inactive; negative” under setting [6]; “inactive; negative” under setting [1]; “inactive; negative” under setting [2]; “inactive; negative” under setting [3]; “inactive; negative” under setting [4]; “inactive; negative” under setting [5]. The mutagenic call under setting [7] was “inactive; negative”.

The record behind these values is PubChem BioAssay AID1259407 (Chemical Carcinogenesis Research Information System (CCRIS), 2018).
